Laboratory results: patent US9513294B2, “Megastokes amino-triazolyl-BODIPY compounds and applications to live neuron staining and human serum albumin FA1 drug site probing” (National University of Singapore, priority 2012, dated 2016)

Legend:
[1] = Absorbance and fluorescence emission spectra (SpectraMax M2); type: physicochemical
Protocol: BDC-8 (Blue): absorbance λmax=473 nm, emission λmax=585 nm; MK101-8 (Green): absorbance λmax=474 nm, emission λmax=563 nm; MKHA374-48 (Yellow): absorbance λmax=468 nm, λem=557 nm. The corresponding spectra of a reported BODIPY (BD-27; Red) are also included for comparison: absorbance λmax=551 nm, emission λmax=568 nm. The structures of BDC-8, MK101-8, MKHA374-48 and BD-27 are also depicted.
(§1) ^1H-NMR, ^19F-NMR and ^13C-NMR spectra were recorded on Bruker ACF300 (300 MHz), DPX300 (300 MHz) and AMX500 (500 MHz) spectrometers. High resolution mass spectra (ESI) were obtained on a Finnigan/MAT 95XL-T spectrometer. Spectroscopic and quantum yield data were measured on a SpectraMax M2 spectrophotometer (Molecular Devices). Data analysis was performed using GraphPrism 5.0. Analytical characterization was performed on a HPLC-MS (Agilent-1200 series) with a DAD detector and a single quadrupole mass spectrometer (6130 series) with an ESI probe. Analytical HPLC method: eluents, A: H2O (0.1% HCOOH), B: CH3CN (0.1% HCOOH), gradient 5% B to 95% B (10 min). Reverse-phase Phenomenex C18 Luna column (4.6×50 mm^2, 3.5 […]), flow rate: 1 mL/min.

[2] = Quantum yield measurements versus Acridine Yellow in EtOH; type: physicochemical; details: excitation 460 nm
Protocol: as §1
Quantum yields were calculated by measuring the integrated emission area of the fluorescent spectra and comparing to the area measured for Acridine Yellow in EtOH when excited at 460 nm (Φfluorescence^AcridineYellow=0.47). Quantum yields for the amino-triazolyl-BODIPYs were calculated using the equation below, where F represents the area of fluorescent emission, η is the refractive index of the solvent, and Abs is absorbance at the excitation wavelength selected for standards and samples. Emission was integrated between 510 and 700 nm.

| Structure (SMILES) | λmax Absorp. ([1]; BDC library, Table 2) | λmax Emission ([1]; BDC library, Table 2) | φ (quantum yield) ([2]; BDC library, Table 2) | λmax Absorp. ([1]; BDCAC library, Table 3) | λmax Emission ([1]; BDCAC library, Table 3) | φ (quantum yield) ([2]; BDCAC library, Table 3) |
| --- | --- | --- | --- | --- | --- | --- |
| Nc1ccc(C2=C3C=CC(N4CCCCC4)=[N+]3[B-](F)(F)n3c2ccc3-n2cc(C3=CCCCC3)nn2)cc1 [BDC-37] | 474 nm | 579 nm | 0.12% |  |  |  |
| CCCCc1cn(-c2ccc3n2[B-](F)(F)[N+]2=C(N4CCCCC4)C=CC2=C3c2ccc(N)cc2)nn1 [BDC-42] | 473 nm | 584 nm | 0.19% |  |  |  |
| CC(C)Cc1cn(-c2ccc3n2[B-](F)(F)[N+]2=C(N4CCCCC4)C=CC2=C3c2ccc(N)cc2)nn1 [BDC-43] | 476 nm | 589 nm | 0.10% |  |  |  |
| CCCCCCCCc1cn(-c2ccc3n2[B-](F)(F)[N+]2=C(N4CCCCC4)C=CC2=C3c2ccc(N)cc2)nn1 [BDC-44] | 475 nm | 583 nm | 0.13% |  |  |  |
| Cc1cccc(-c2cn(-c3ccc4n3[B-](F)(F)[N+]3=C(N5CCCCC5)C=CC3=C4c3ccc(N)cc3)nn2)c1 [BDC-45] | 469 nm | 556 nm | 0.42% |  |  |  |
| CCc1ccc(-c2cn(-c3ccc4n3[B-](F)(F)[N+]3=C(N5CCCCC5)C=CC3=C4c3ccc(N)cc3)nn2)cc1 [BDC-46] | 473 nm | 585 nm | 0.10% |  |  |  |
| CCCCCCc1cn(-c2ccc3n2[B-](F)(F)[N+]2=C(N4CCCCC4)C=CC2=C3c2ccc(N)cc2)nn1 [BDC-47] | 473 nm | 574 nm | 0.16% |  |  |  |
| CCCc1cn(-c2ccc3n2[B-](F)(F)[N+]2=C(N4CCCCC4)C=CC2=C3c2ccc(N)cc2)nn1 [BDC-48] | 476 nm | 582 nm | 0.10% |  |  |  |
| CCCCCCCCCCc1cn(-c2ccc3n2[B-](F)(F)[N+]2=C(N4CCCCC4)C=CC2=C3c2ccc(N)cc2)nn1 [BDC-49] | 475 nm | 589 nm | 0.12% |  |  |  |
| CCCCCCCc1cn(-c2ccc3n2[B-](F)(F)[N+]2=C(N4CCCCC4)C=CC2=C3c2ccc(N)cc2)nn1 [BDC-50] | 475 nm | 577 nm | 0.13% |  |  |  |
| Nc1ccc(C2=C3C=CC(N4CCCCC4)=[N+]3[B-](F)(F)n3c2ccc3-n2cc(C3(O)CCCC3)nn2)cc1 [BDC-67] | 478 nm | 595 nm | 0.09% |  |  |  |
| CCCCCC(O)c1cn(-c2ccc3n2[B-](F)(F)[N+]2=C(N4CCCCC4)C=CC2=C3c2ccc(N)cc2)nn1 (stereo not drawn) [BDC-69] | 476 nm | 586 nm | 0.13% |  |  |  |
| Nc1ccc(C2=C3C=CC(N4CCCCC4)=[N+]3[B-](F)(F)n3c2ccc3-n2cc(CO)nn2)cc1 [BDC-70] | 474 nm | 586 nm | 0.13% |  |  |  |
| CC(=O)Nc1ccc(C2=C3C=CC(N4CCCCC4)=[N+]3[B-](F)(F)n3c2ccc3-n2cc(C(C)(C)C)nn2)cc1 [BDCAC-1] |  |  |  | 469 nm | 580 nm | 1.5% |
| CC(=O)Nc1ccc(C2=C3C=CC(N4CCCCC4)=[N+]3[B-](F)(F)n3c2ccc3-n2cc(CN(C)C)nn2)cc1 [BDCAC-2] |  |  |  | 466 nm | 591 nm | 0.8% |
| CCCC(C)c1cn(-c2ccc3n2[B-](F)(F)[N+]2=C(N4CCCCC4)C=CC2=C3c2ccc(NC(C)=O)cc2)nn1 (stereo not drawn) [BDCAC-3] |  |  |  | 467 nm | 585 nm | 1.5% |

| Structure (SMILES) | λmax Absorp. ([1]; BDC library, Table 2) | λmax Emission ([1]; BDC library, Table 2) | φ (quantum yield) ([2]; BDC library, Table 2) | λmax Absorp. ([1]; BDCAC library, Table 3) | λmax Emission ([1]; BDCAC library, Table 3) | φ (quantum yield) ([2]; BDCAC library, Table 3) |
| --- | --- | --- | --- | --- | --- | --- |
| CC(=O)Nc1ccc(C2=C3C=CC(N4CCCCC4)=[N+]3[B-](F)(F)n3c2ccc3-n2cc(C3CC3)nn2)cc1 [BDCAC-4] |  |  |  | 467 nm | 578 nm | 1.5% |
| CC(=O)Nc1ccc(C2=C3C=CC(N4CCCCC4)=[N+]3[B-](F)(F)n3c2ccc3-n2cc(C3CCCC3)nn2)cc1 [BDCAC-5] |  |  |  | 469 nm | 588 nm | 1.3% |
| CC(=O)Nc1ccc(C2=C3C=CC(N4CCCCC4)=[N+]3[B-](F)(F)n3c2ccc3-n2cc(C3CCCCC3)nn2)cc1 [BDCAC-6] |  |  |  | 467 nm | 560 nm | 2.4% |
| CC(=O)Nc1ccc(C2=C3C=CC(N4CCCCC4)=[N+]3[B-](F)(F)n3c2ccc3-n2cc(CC3CCCC3)nn2)cc1 [BDCAC-7] |  |  |  | 467 nm | 585 nm | 1.3% |
| CC(=O)Nc1ccc(C2=C3C=CC(N4CCCCC4)=[N+]3[B-](F)(F)n3c2ccc3-n2cc(CC3CCCCC3)nn2)cc1 [BDCAC-8] |  |  |  | 468 nm | 585 nm | 0.9% |
| CC(=O)Nc1ccc(C2=C3C=CC(N4CCCCC4)=[N+]3[B-](F)(F)n3c2ccc3-n2cc(-c3ccccc3)nn2)cc1 [BDCAC-9] |  |  |  | 465 nm | 579 nm | 1.1% |
| CC(=O)Nc1ccc(C2=C3C=CC(N4CCCCC4)=[N+]3[B-](F)(F)n3c2ccc3-n2cc(-c3ccc(C)cc3)nn2)cc1 [BDCAC-10] |  |  |  | 464 nm | 556 nm | 2.4% |
| CC(=O)Nc1ccc(C2=C3C=CC(N4CCCCC4)=[N+]3[B-](F)(F)n3c2ccc3-n2cc(-c3ccc(C(C)(C)C)cc3)nn2)cc1 [BDCAC-11] |  |  |  | 465 nm | 582 nm | 1.4% |
| CCCCc1ccc(-c2cn(-c3ccc4n3[B-](F)(F)[N+]3=C(N5CCCCC5)C=CC3=C4c3ccc(NC(C)=O)cc3)nn2)cc1 [BDCAC-12] |  |  |  | 464 nm | 558 nm | 1.6% |
| CC(=O)Nc1ccc(C2=C3C=CC(N4CCCCC4)=[N+]3[B-](F)(F)n3c2ccc3-n2cc(-c3ccc(N(C)C)cc3)nn2)cc1 [BDCAC-13] |  |  |  | 467 nm | 619 nm | 0.1% |
| COc1cc(OC)cc(-c2cn(-c3ccc4n3[B-](F)(F)[N+]3=C(N5CCCCC5)C=CC3=C4c3ccc(NC(C)=O)cc3)nn2)c1 [BDCAC-14] |  |  |  | 464 nm | 588 nm | 1.0% |
| CC(=O)Nc1ccc(C2=C3C=CC(N4CCCCC4)=[N+]3[B-](F)(F)n3c2ccc3-n2cc(-c3ccc(OC(F)(F)F)cc3)nn2)cc1 [BDCAC-15] |  |  |  | 463 nm | 537 nm | 2.7% |
| CC(=O)Nc1ccc(C2=C3C=CC(N4CCCCC4)=[N+]3[B-](F)(F)n3c2ccc3-n2cc(-c3ccc(F)c(F)c3)nn2)cc1 [BDCAC-16] |  |  |  | 462 nm | 586 nm | 0.7% |
| CC(=O)Nc1ccc(C2=C3C=CC(N4CCCCC4)=[N+]3[B-](F)(F)n3c2ccc3-n2cc(COc3ccccc3)nn2)cc1 [BDCAC-17] |  |  |  | 465 nm | 584 nm | 0.8% |
| CC(=O)Nc1ccc(C2=C3C=CC(N4CCCCC4)=[N+]3[B-](F)(F)n3c2ccc3-n2cc(CN(C)Cc3ccccc3)nn2)cc1 [BDCAC-18] |  |  |  | 465 nm | 588 nm | 0.8% |
| CC(=O)Nc1ccc(C2=C3C=CC(N4CCCCC4)=[N+]3[B-](F)(F)n3c2ccc3-n2cc(CCc3ccccc3)nn2)cc1 [BDCAC-19] |  |  |  | 467 nm | 580 nm | 0.9% |
